This is an account of results in PubChem BioAssay (NCI).

Experiment in all cases: inhibition of tumour cell growth, NCI panel, 48 h
The subject of assay [1] is SW-620 colon.
Assay [2] deals with UACC-62 melanoma.
Assay [3] relates to HOP-62 NSCLC.
Assay [4] relates to TK-10 renal.
Assay [5] concerns A549 NSCLC.
For assay [6], the system named is NCI-H23 lung.
In assay [7] the test system is HCC-2998 colon.
Assay [8] relates to ACHN renal.
Assay [9] relates to HCT-15 colon.

The structures appear in SMILES notation. Several values for one entry are separate records, joined by “and”; a condition that tells them apart may be missing. Identical values can stand only once.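 Method: 48-hour compound exposure of cells in 96-well plates, five concentrations, linear interpolation of endpoints. GI50 is the concentration that inhibits growth by half. TGI: concentration producing complete growth inhibition.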

On to `COc1ccccc1C1=C2C(=O)N(C)C(c3ccccc3OC)=C2C(=O)N1C`, for which the TGI is greater than 100 µM in assay [1]; greater than 100 µM in assay [2]; 43.9 µM in assay [3]; greater than 100 µM in assay [4]; greater than 100 µM in [5]; greater than 100 µM in assay [6]. Besides, the TGI in assay [7], in [8] and in assay [9] was greater than 100 µM in each case.

As for `CCOC(=O)CCCn1c(SC)nc2cc(-c3ccco3)[nH]c2c1=O`, the GI50 is greater than 100 µM in [1]; 22.5 µM in [2]; 37 µM in assay [3]; 35.1 µM in [4]; greater than 100 µM in [5]; 90.5 µM in assay [6]. For the same compound, the results for the GI50 in assay [7], in assay [8] and in [9] were greater than 100 µM, 31.7 µM and greater than 100 µM, respectively. The TGI in assay [1] is greater than 100 µM; in [2] it was 68.3 µM; in assay [3], greater than 100 µM; in assay [4], greater than 100 µM; in assay [5], greater than 100 µM; in assay [6], greater than 100 µM. Also, the TGI in [7], in [8] and in [9] was greater than 100 µM in each case.

Consider `Cn1ccc2c(NCCN)c3c(c(NCCN)c21)C(=O)c1ccccc1C3=O`, for which the GI50 was 0.514 µM in assay [1]; 2.17 µM in assay [2]; 0.35 µM in assay [3]; 2.53 µM in assay [4]; 2.83 µM in [5]; 1.68 µM in assay [6]. Further, the results for the GI50 in [7], in [8] and in [9] were 1.64 µM, 2.5 µM and 2.8 µM, respectively. Also, the TGI came out at 2.59 µM in assay [1]; 5.86 µM in assay [2]; 2.72 µM in assay [3]; 9.96 µM in assay [4]; 12.1 µM in [5]; 4.07 µM in assay [6]. Besides, the TGI in assay [7] was 3.99 µM; in assay [8], 9.04 µM; in assay [9] it was greater than 32 µM.

Consider `O=C1/C(=C/c2ccc(O)c([N+](=O)[O-])c2)CCC/C1=C\c1ccc(O)c([N+](=O)[O-])c1`, for which the GI50 in assay [1] is 30.1 µM; in [2], 14.1 µM; in assay [3] it was 25 µM; in [4] it was 38.8 µM; in [5], 25.5 µM; in assay [6] it was 8.14 µM. For the same compound, the GI50 is 20.4 µM in [8] and 9.77 µM in assay [9]. For the same compound, the TGI in assay [1] is 50 µM and 99.2 µM; in assay [2], 15.5 µM and 37.2 µM; in assay [3], 28 µM and > 100 µM; in assay [4], 50 µM and > 100 µM; in assay [5] it was 32.4 µM and 91.7 µM; in assay [6], 32.6 µM and 25.2 µM. Further, the TGI in assay [7] was 16 µM; in assay [8] it was 14.8 µM and 38.5 µM; in assay [9], 36.5 µM and 37.2 µM.

Take `O=C1CCCCCCCCCCC(=O)C2CCOCCOCCOCCC1Cc1cccc(n1)C2`: the TGI in assay [1], in assay [2], in assay [3], in assay [4], in assay [5] and in [6] was greater than 100 µM each time. Moreover, the TGI in assay [7], in [8] and in assay [9] was greater than 100 µM throughout.

In the case of `C/C=C(\C)C(=O)N[C@H]1[C@@H](OC(C)=O)C[C@]2(C)C3CC[C@@]4(C)C(CC[C@@H]4C(C)N(C)C)C3CCC2[C@H]1O` (some centres not stated), the GI50 in assay [1] was 2.63 µM; in [2], 1.91 µM; in [3] it was 3.42 µM; in [4], 8.32 µM; in assay [5], 5.41 µM; in assay [6], 11.7 µM. Moreover, the figures for the GI50 in [7], in assay [8] and in assay [9] were 7.15 µM, 5.74 µM and 1.46 µM, respectively. Besides, the TGI in assay [1] was 9.44 µM; in assay [2], 4.13 µM; in [3] it was 9.29 µM; in [4] it was 24.5 µM; in [5], 20.3 µM; in assay [6] it was 28.2 µM. Besides, the TGI in assay [7] came out at 21.7 µM; in [8], 17.9 µM; in assay [9], 4.22 µM.

For `CC(=O)NC1=C(Nc2ccc(C)cc2)C(=O)c2ccccc2C1=O`, the TGI was 27.7 µM in [1]; 23 µM in assay [2]; 37.6 µM in [3]; greater than 75 µM in [4]; 29.3 µM in [5]; 19.6 µM in assay [6]. Moreover, the TGI was greater than 75 µM in assay [7], 47.5 µM in assay [8] and 39.3 µM in [9].

In the case of `O=[N+]([O-])c1ccc(Sc2c3ccccc3nc3ccccc23)cc1`, the TGI in [1], in assay [2], in [3], in assay [5], in assay [6] and in [7] was greater than 100 µM throughout. Further, the TGI in [8] and in assay [9] was greater than 100 µM each time.

As for `CC1Cc2c(N)nc(NN)nc2NC1=O` (configuration not stated), the TGI in assay [1], in [2], in [3], in [4], in assay [5] and in [6] was greater than 100 µM each time. Besides, the TGI in assay [8] and in assay [9] was greater than 100 µM throughout.

Take `CCOc1cc2c(cnc3c4cc(OC)c(OC)cc4ccc23)cc1OC`: the TGI in assay [1], in assay [2], in assay [3], in [4], in assay [5] and in assay [6] was greater than 100 µM in each case. In addition, the TGI in assay [7], in assay [8] and in assay [9] was greater than 100 µM each time.

`O=C(Nc1ccc(-n2cc(-c3ccncc3)c(-c3ccc(Cl)c(O)c3)n2)cc1)Nc1cc(C(F)(F)F)cc(C(F)(F)F)c1`: the GI50 in assay [1] is 2.24 µM; in [2] it was 2.23 µM; in assay [3], 1.8 µM; in assay [4], 3.05 µM; in assay [5], 1.93 µM; in assay [6], 2.13 µM. Also, the results for the GI50 in assay [7], in assay [8] and in assay [9] were 1.79 µM, 2.92 µM and 1.9 µM, respectively. The TGI is 4.44 µM in [1]; 5.37 µM in [2]; 3.66 µM in assay [3]; 11.4 µM in [4]; 4.3 µM in assay [5]; 4.91 µM in assay [6]. Also, the TGI was determined as 3.37 µM in assay [7], 10.3 µM in assay [8] and 4.3 µM in assay [9].

Take `COc1ccc2nc(-c3ccccc3)cc(Nc3ccc(C(C)=O)cc3)c2c1`: the GI50 in [1] was 5.08 µM; in assay [2], 2.31 µM; in assay [4], 5.24 µM; in assay [5], 11.9 µM; in assay [6], 3.51 µM; in [7], 2.45 µM. Besides, the values for the GI50 in [8] and in assay [9] were 2.54 µM and 2.25 µM, respectively. Further, the TGI is 18.5 µM in assay [1]; 5.13 µM in assay [2]; 17.2 µM in [4]; 60.3 µM in assay [5]; 11.9 µM in [6]; 5.27 µM in assay [7]. Further, the results for the TGI in [8] and in [9] were 9.79 µM and 6.11 µM, respectively.

In the case of `CC(=O)C1CC2(c3ccc(C)cc3)C(c3ccc(C)cc3)=C(c3ccc(C)cc3)C1(c1ccc(C)cc1)S2=O` (configuration not stated), the GI50 in assay [1], in assay [2], in assay [3], in [4], in [5] and in [6] was greater than 100 µM throughout. Besides, the GI50 in [7], in assay [8] and in assay [9] was greater than 100 µM throughout. Besides, the TGI in assay [1], in assay [2], in assay [3], in [4], in assay [5] and in assay [6] was greater than 100 µM each time. Moreover, the TGI in [7], in [8] and in [9] was greater than 100 µM throughout.

Take `CC(=O)OCC1OC(OC2CC3C(C)(C)C(OC(C)=O)CC[C@]3(C)C3CCC45CC4(CC[C@H]5C(C)CC(O)[C@@H](O)C(C)(C)O)[C@]23C)C(O)C(O)C1O` (some centres not stated): the GI50 in assay [1] was 3.54 µM; in assay [2], 4.9 µM; in [3] it was 12.1 µM; in assay [4] it was 13.6 µM; in [5], 19.9 µM; in [6], 13.5 µM. For the same compound, the GI50 in assay [8] was 15 µM; in assay [9], 12 µM. Also, the TGI in assay [1] is 14 µM and 13.7 µM; in assay [2] it was 12.2 µM and 16.5 µM; in [3], 11.8 µM and 25.9 µM; in assay [4] it was 14 µM and 26.5 µM; in assay [5], 14.2 µM and 35 µM; in [6], 14.9 µM and 26.3 µM. In addition, the TGI in assay [7] was 12.9 µM; in assay [8], 14.3 µM and 29 µM; in assay [9], 14 µM and 24.3 µM.

Turning to `[N-]=[N+]=C(C(=O)OCC#CCOC(=O)C(=[N+]=[N-])S(=O)(=O)c1ccccc1)S(=O)(=O)c1ccccc1`, the TGI in [1], in assay [2], in assay [3], in [4], in assay [5] and in assay [6] was greater than 10 µM each time. Further, the TGI in assay [7], in assay [8] and in [9] was greater than 10 µM throughout.

In the case of `CCOC(=O)Cc1csc(/N=C2\NC(=O)/C(=C3\C(=O)N(C)c4ccccc43)S2)n1`, the GI50 in assay [1] is 52.1 µM; in assay [2], 26.1 µM; in [3], 30.1 µM; in [4], 31.9 µM; in [5], 36.5 µM; in [6], 48 µM. Moreover, the GI50 in assay [7] was 46.1 µM; in assay [8], 35.9 µM; in assay [9], 39.7 µM. The TGI in [1] is greater than 100 µM; in assay [2] it was 83.6 µM; in [3], 87.9 µM; in [4], greater than 100 µM; in [5] it was greater than 100 µM; in assay [6], greater than 100 µM. The TGI in assay [7], in assay [8] and in [9] was greater than 100 µM in each case.

For `N/N=C(\CC1OC(=O)c2ccccc21)c1ccco1` (configuration not stated), the TGI in assay [1], in [2], in assay [4], in assay [5], in [6] and in assay [7] was greater than 100 µM in each case. Also, the TGI in assay [8] and in [9] was greater than 100 µM throughout.

Consider `CCCCCCCCCNCCCCCCCCC`, for which the GI50 in assay [1] is 1.76 µM; in assay [2], 1.74 µM; in assay [3] it was 1.93 µM; in assay [4] it was 1.75 µM; in [5], 2.04 µM; in assay [6] it was 1.72 µM. For the same compound, the GI50 in assay [7] is 1.69 µM; in assay [8], 1.76 µM; in [9], 1.79 µM. For the same compound, the TGI in assay [1] was determined as 3.48 µM; in assay [2] it was 3.35 µM; in assay [3], 3.38 µM; in assay [4], 3.23 µM; in [5], 4.08 µM; in assay [6], 3.39 µM. For the same compound, the TGI in [7] stood at 3.24 µM; in assay [8], 3.14 µM; in [9], 3.47 µM.

As for `Cc1cccc(C)c1NC(=O)CCCC(=O)CC(=O)/C=C/c1ccccc1`, the TGI in assay [1], in assay [2], in assay [4], in assay [5], in [6] and in assay [8] was greater than 100 µM each time. Besides, in assay [9], the TGI was greater than 100 µM.

On to `COC(=O)NC/C=C\c1nc(CC/C=C\C(=O)OC2CC3CC(=O)O[C@H](/C=C/CC(C)C)C[C@H]4CCC(C)C(C[C@H](OC)CC(C2)O3)O4)co1` (some centres not stated), for which the GI50 is less than 0.01 µM in assay [1]; 0.0635 µM in assay [2]; less than 0.01 µM in assay [3]; 1.55 µM in assay [4]; less than 0.01 µM in [5]. In addition, the TGI in assay [1] was greater than 100 µM; in assay [2], greater than 100 µM; in [3] it was 62.7 µM; in assay [4], 74 µM; in assay [5], greater than 100 µM.
